{"source": "paper PMC3359361", "about": "“Antimalarial Activity and Mechanisms of Action of Two Novel 4-Aminoquinolines against Chloroquine-Resistant Parasites” (PLoS ONE, 2012)", "key": {"[1]": {"system": "P. falciparum W2 clone (CQ-resistant and mefloquine-sensitive)", "experiment": "ELISA anti-HRPII assay, W2 clone", "format": "cell-based", "conditions": "Plasmodium falciparum", "description": "(§1) Human erythrocytes (A^+) and serum blood group A+ were kindly donated by Center of Hemotherapy and Hemathology of Minas Gerais (HEMOMINAS). Immediately before the tests, ring stage-parasites were synchronized in sorbitol. Synchronized parasites were stained with orange green in pre-dried coverslips then immediately examined under a fluorescent microscope. The suspension was adjusted for parasitemia and hematocrit as described below for each test. The infected red blood cells were distributed in a 96-well microtiter plate (Corning, Santa Clara, CA, EUA) at 180 µL/well, in which 20 µL of the test drugs and controls were previously diluted at different concentrations (400-0.625 ng/mL) in 0.005% DMSO (v/v) (Sigma, USA).\n(§2) The [^3H]-hypoxanthine assay was performed at 1% parasitemia and 1% hematocrit and the level of isotope incorporation was read in a beta-counter (PerkinElmer, Waltham, MA, EUA). The anti-HRPII test was performed at 0.05% parasitemia and 1.5% hematocrit and the HRPII quantification was read at 450 nm in a spectrophotometer (SpectraMax340PC^384, Molecular Devices). […] Curve-fitting was performed using Origin 8.0 software (OriginLab Corporation, Northampton, MA, USA)."}, "[2]": {"system": "P. falciparum W2 clone (CQ-resistant and mefloquine-sensitive)", "experiment": "3H hypoxanthine incorporation, W2 clone", "format": "cell-based", "conditions": "Plasmodium falciparum", "description": "as §1, §2"}, "[3]": {"system": "P. falciparum 3D7 strain (CQ-sensitive)", "experiment": "ELISA anti-HRPII assay, 3D7 strain", "format": "cell-based", "conditions": "Plasmodium falciparum", "description": "as §1, §2"}, "[4]": {"system": "P. falciparum 3D7 strain (CQ-sensitive)", "experiment": "3H hypoxanthine incorporation, 3D7 strain", "format": "cell-based", "conditions": "Plasmodium falciparum", "description": "as §1, §2"}, "P. berghei, NK65 strain": {"system": "P. berghei, NK65 strain", "experiment": "Suppressive parasite growth test in P. berghei infected mice", "format": "in vivo", "conditions": "for Time of survival / Percent reduction of parasitemia, day 5 / Percent reduction of parasitemia, day 8 / Percent reduction of parasitemia, day 10: three consecutive days; for Percent reduction of parasitemia, day 5: day 5 post-infection; for Percent reduction of parasitemia, day 8: day 8 post-infection; for Percent reduction of parasitemia, day 10: day 10 post-infection", "protocol": "A suppressive parasite growth test was used with P. berghei, NK65 strain (originally received from the New York University Medical School) infected mice as described previously with some modifications. Briefly, adult Swiss outbred mice (20±2 g weigh) were inoculated with 1×10^5 red blood cells infected with P. berghei, by intraperitoneal route. The infected mice were maintained together for at least 2 h and then divided randomly into groups of 3–5 animals per cage, which were subsequently treated with 25 and 50 mg/kg of each compound diluted in DMSO 3% (v/v) given daily by oral gavage for three consecutive days. […] Blood smears from mouse tails were prepared on days 5, 8 and 10 post-infection and then methanol-fixed, stained with Giemsa and examined microscopically."}, "[5]": {"system": "monkey kidney cell line (BGM)", "experiment": "Cytotoxicity by MTT assay, BGM cells", "format": "cell-based", "protocol": "(§3) The human hepatoma cell line (HepG2) was originally received from the New University of Lisbon, and the monkey kidney cell line (BGM) from the Federal University of Minas Gerais. […] For the in vitro tests, a confluent cell monolayer was trypsinized, washed with culture medium, distributed in a flat-bottomed 96-well plate (5×10^3 cells/well) and incubated for 18 h at 37°C to ensure cell adherence.\n(§4) The cytotoxicity was evaluated with the MTT assay, 3-(4,5-Dimethylthiazol-2-yl)-2,5-diphenyltetrazolium bromide. Briefly, the HepG2 and BGM cell lines were incubated with 20 µL of the compounds at different concentrations (1000-1 µg/mL) for 24 h in a 5% CO2 and air atmosphere at 37°C. For the MTT assay, which evaluates mitochondrial viability, 20 µL of MTT solution (5 mg/mL) were added and the plates were incubated for a further 3 h. After incubation, the supernatant was carefully removed from the wells, followed by the addition of 100 µL DMSO with thorough mixing.\n(§5) The neutral red assay was used to evaluate cell viability by the accumulation of dye in the viable cell lysosome. […] Cell viability was expressed as the percentage of control absorbance obtained in untreated cells after subtracting the absorbance of the appropriate background. Lastly, the minimum lethal dose for 50% of the cells (MLD50) was determined as previously described."}, "[6]": {"system": "human hepatoma cell line (HepG2)", "experiment": "Cytotoxicity by MTT assay, HepG2 cells", "format": "cell-based", "protocol": "as §3, §4, §5"}, "hemozoin formation": {"system": "hemozoin formation", "experiment": "Inhibition of hemozoin assay", "format": "biochemical", "conditions": "dose-dependent; p<0.05 vs drug-free controls; two experiments in triplicate", "protocol": "The hemozoin inhibition assay was performed as described by Ncokazi et al., (2002) with some modifications. Briefly, 10.1 µL of the aminoquinoline derivatives at different concentrations (40-0.62 mg/mL) and 101.2 µL of the hematin stock solution (1.68 mM in 0.1 M NaOH) were combined in triplicate in a flat-bottomed 96-well plate. The solutions were further mixed and 58.7 µL of acetate solution (12.9 M, pH 5.0) then added to each well. After incubation at 60°C, 80 µL of 30% (v/v) pyridine solution in 20 mM HEPES, pH 7.5, were added at room temperature. The solids formed were resuspended and allowed to settle for 15 min at room temperature. Then, 38 µL of the supernatant were transferred to a new plate and diluted to 250 µL with a 30% (v/v) pyridine solution (20 mM HEPES, pH 7.5). The color reaction was read in a spectophometer at 405 nm and the results were expressed as the concentration of free heme in each well, which was calculated from the standard absorbance curve of a known hemin solution. CQ was used as a positive control and the cut off was determined by the amount of free heme in the drug-free control. Each compound was evaluated in two different experiments."}}, "data": [{"smiles": "CCN(CC)CCCC(C)Nc1ccnc2cc(Cl)ccc12", "note": "(stereo not shown) [CQ, Chloroquine]", "values": [{"measurement": "IC50", "setting": "[1]; W2, read-out: IC50 HRPII, W2 (CQ resistant)", "result": 120, "unit": "nM"}, {"measurement": "IC50", "setting": "[2]; W2, read-out: IC50 Hypoxanthine, W2 (CQ resistant)", "result": 180, "unit": "nM"}, {"measurement": "IC50", "setting": "[3]; 3D7, read-out: IC50 HRPII, 3D7 (CQ sensitive)", "result": "6.9 ± 0.9", "unit": "nM"}, {"measurement": "IC50", "setting": "[4]; 3D7, read-out: IC50 Hypoxanthine, 3D7 (CQ sensitive)", "result": "7.4 ± 1.2", "unit": "nM"}, {"measurement": "Time of survival", "setting": "P. berghei, NK65 strain; 20 mg/kg daily", "result": ">30", "unit": "days"}, {"measurement": "Percent reduction of parasitemia, day 5", "setting": "P. berghei, NK65 strain; 20 mg/kg daily", "result": 100, "unit": "%"}, {"measurement": "Percent reduction of parasitemia, day 8", "setting": "P. berghei, NK65 strain; 20 mg/kg daily", "result": 100, "unit": "%"}, {"measurement": "Percent reduction of parasitemia, day 10", "setting": "P. berghei, NK65 strain; 20 mg/kg daily", "result": 100, "unit": "%"}, {"measurement": "Suppression of parasitemia", "setting": "P. berghei, NK65 strain; CQ 20 mg/kg, day not given", "result": 100, "unit": "%"}]}, {"smiles": "NCCNCCNc1ccnc2cc(Cl)ccc12", "note": "[MAQ, N^1-(2-aminoethyl)-N^2-(7-chloroquinol-4-yl)ethane-1,2-diamine]", "values": [{"measurement": "IC50", "setting": "[1]; W2, dose that inhibits 50% of blood parasites growth, three or four experiments, read-out: IC50 HRPII, W2 (CQ resistant)", "result": "260 ± 20", "unit": "nM"}, {"measurement": "IC50", "setting": "[2]; W2, dose that inhibits 50% of blood parasites growth, three or four experiments, read-out: IC50 Hypoxanthine, W2 (CQ resistant)", "result": "320 ± 70", "unit": "nM"}, {"measurement": "IC50", "setting": "[3]; 3D7, dose that inhibits 50% of blood parasites growth, three or four experiments, read-out: IC50 HRPII, 3D7 (CQ sensitive)", "result": "26 ± 2", "unit": "nM"}, {"measurement": "IC50", "setting": "[4]; 3D7, dose that inhibits 50% of blood parasites growth, three or four experiments, read-out: IC50 Hypoxanthine, 3D7 (CQ sensitive)", "result": "66 ± 5", "unit": "nM"}, {"measurement": "Selectivity index BGM", "setting": "[5]; MDL50/IC50", "result": 384}, {"measurement": "MDL50 BGM", "setting": "[5]; monkey, 24 h", "result": "100 ± 0.0", "unit": "µM"}, {"measurement": "Selectivity index HepG2", "setting": "[6]; MDL50/IC50", "result": 1038}, {"measurement": "MDL50 HepG2", "setting": "[6]; human, 24 h", "result": "270 ± 10", "unit": "µM"}, {"measurement": "Activity in vivo (class)", "setting": "P. berghei, NK65 strain; 25 mg/kg", "result": "active"}, {"measurement": "Time of survival", "setting": "P. berghei, NK65 strain; 25 mg/kg daily, oral gavage", "result": "24 ± 1", "unit": "days"}, {"measurement": "Percent reduction of parasitemia, day 5", "setting": "P. berghei, NK65 strain; 25 mg/kg daily, oral gavage", "result": 91, "unit": "%"}, {"measurement": "Percent reduction of parasitemia, day 8", "setting": "P. berghei, NK65 strain; 25 mg/kg daily, oral gavage", "result": 61, "unit": "%"}, {"measurement": "Percent reduction of parasitemia, day 10", "setting": "P. berghei, NK65 strain; 25 mg/kg daily, oral gavage", "result": 70, "unit": "%"}, {"measurement": "Time of survival", "setting": "P. berghei, NK65 strain; 50 mg/kg daily, oral gavage", "result": "25 ± 1", "unit": "days"}, {"measurement": "Percent reduction of parasitemia, day 5", "setting": "P. berghei, NK65 strain; 50 mg/kg daily, oral gavage", "result": 95, "unit": "%"}, {"measurement": "Percent reduction of parasitemia, day 8", "setting": "P. berghei, NK65 strain; 50 mg/kg daily, oral gavage", "result": 71, "unit": "%"}, {"measurement": "Percent reduction of parasitemia, day 10", "setting": "P. berghei, NK65 strain; 50 mg/kg daily, oral gavage", "result": 76, "unit": "%"}, {"measurement": "Activity in vivo (class)", "setting": "P. berghei, NK65 strain; 50 mg/kg, days 5, 8 and 10 post-infection", "result": "active"}, {"measurement": "Inhibition of hemozoin formation in vitro", "setting": "hemozoin formation", "result": "more evident with MAQ than with BAQ or CQ"}]}]}
